The pEC50 is the EC50 on a negative log10 scale, so that one unit is a factor of ten. A word on the Emax: it is the size of the effect at its maximum, as opposed to the concentration needed.

Structures are written as SMILES. pEC50: −log10 of the molar value.

Consider 29 compounds from US20060247261A1 (priority 2002, published 2006).

The target in this test is T1, human cannabinoid CB2 receptor (Homo sapiens, UniProt P34972).
T1 construct: expressed in transfected cells; host or cells: Saccharomyces cerevisiae strain MMY23 (expresses a chimeric Gpa1/human Galpha-i3 G-protein alpha subunit)
Nature of the test: Cannabinoid CB2 receptor agonist activity, yeast reporter assay. It is filed as cell-based. To be noted: for Emax: read-out: efficacy (Emax) at the cloned human cannabinoid CB2 receptor. The source says: Yeast (Saccharomyces cerevisiae) cells expressing the human cannabinoid CB2 receptor were generated by integration of an expression cassette into the ura3 chromosomal locus of yeast strain MMY23. This cassette consisted of DNA sequence encoding the human CB2 receptor flanked by the yeast GPD promoter to the 5′ end of CB2 and a yeast transcriptional terminator sequence to the 3′ end of CB2. MMY23 expresses a yeast/mammalian chimeric G-protein alpha subunit in which the C-terminal 5 amino acids of Gpa1 are replaced with the C-terminal 5 amino acids of human Gαi3 (as described in Brown et al. (2000), Yeast 16:11-22).
Agonists were prepared as 10 mM stocks in DMSO. […] Agonist solutions in DMSO (1% final assay volume) were transferred into black, clear bottom, microtitre plates from NUNC (96- or 384-well). […] Fluorescence was plotted against compound concentration and iteratively curve fitted using a four parameter fit to generate a concentration effect value.

T1 sequence (P34972 whole entry): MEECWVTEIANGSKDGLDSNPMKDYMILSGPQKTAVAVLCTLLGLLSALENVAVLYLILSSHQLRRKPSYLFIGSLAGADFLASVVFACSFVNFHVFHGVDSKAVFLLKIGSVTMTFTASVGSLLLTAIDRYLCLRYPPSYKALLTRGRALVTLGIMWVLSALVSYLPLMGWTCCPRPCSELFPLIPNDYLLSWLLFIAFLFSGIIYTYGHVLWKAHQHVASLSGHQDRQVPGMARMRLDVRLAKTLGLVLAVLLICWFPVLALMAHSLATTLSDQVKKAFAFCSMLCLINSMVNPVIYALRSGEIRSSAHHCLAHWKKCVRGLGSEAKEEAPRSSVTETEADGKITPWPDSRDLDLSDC

For `O=C(NCc1ccnc(F)c1)c1cnc(Nc2cccc(Cl)c2)nc1C(F)(F)F` [Example 29, 2-(3-Chloro-phenylamino)-4-trifluoromethyl-pyrimidine-5-carboxylic acid (2-fluoro-pyridin-4-ylmethyl)-amide], the negative-log EC50 (pEC50) was 6.00 to 7.70 and the maximal response (Emax) was > 50%.

With `O=C(NCc1ccccc1)c1cnc(Nc2ccccc2Cl)nc1C(F)(F)F` [Example 43, 2-(2-Chloro-phenylamino)-4-trifluoromethyl-pyrimidine-5-carboxylic acid N-benzylamide], the pEC50 was < 6.00 and the maximal effect (Emax) was < 50%.

On to `O=C(NCc1ccccc1)c1cnc(Nc2ccc(Cl)cc2)nc1C(F)(F)F` [Example 44, 2-(4-Chloro-phenylamino)4-trifluoromethyl-pyrimidine-5-carboxylic acid N-benzylamide], for which the pEC50 is < 6.00 and the Emax was < 50%.

`CN(Cc1ccccc1)C(=O)c1cnc(Nc2ccc(Cl)cc2)nc1C(F)(F)F` [Example 45, 2-(4-Chloro-phenylamino)-4-trifluoromethyl-pyrimidine-5-carboxylic acid N-benzyl-N-methyl-amide]: the pEC50 was < 6.00 and the maximum response (Emax) was < 50%.

For the compound `COc1ccc(Nc2ncc(C(=O)NCc3ccccc3)c(C(F)(F)F)n2)cc1` [Example 46, 2-(4-Methoxy-phenylamino)-4-trifluoromethyl-pyrimidine-5-carboxylic acid N-benzylamide], the negative logarithm of the EC50 (pEC50) is < 6.00 and the Emax was < 50%.

`COc1ccc(Nc2ncc(C(=O)N(C)Cc3ccccc3)c(C(F)(F)F)n2)cc1` [Example 47, 2-(4-Methoxy-phenylamino)-4-trifluoromethyl-pyrimidine-5-carboxylic acid N-benzyl-N-methyl-amide]: the negative logarithm of the EC50 (pEC50) is < 6.00 and the Emax was < 50%.

Regarding `CN(Cc1ccccc1)C(=O)c1cnc(Nc2cccc(C#N)c2)nc1C(F)(F)F` [Example 48, 2-(3-Cyano-phenylamino)-4-trifluoromethyl-pyrimidine-5-carboxylic acid N-benzyl-N-methyl-amide], the pEC50 is < 6.00 and the Emax is < 50%.

On to `CN(Cc1ccccc1)C(=O)c1cnc(Nc2ccc(C#N)cc2)nc1C(F)(F)F` [Example 49, 2-(4-Cyano-phenylamino)-4-trifluoromethyl-pyrimidine-5-carboxylic acid N-benzyl-N-methyl-amide], for which the negative logarithm of the EC50 (pEC50) was < 6.00 and the Emax is < 50%.

Consider `COc1cccc(CNC(=O)c2cnc(Nc3cccc(Cl)c3)nc2C(F)(F)F)c1` [Example 50, 2-(3-Chloro-phenylamino)-4-trifluoromethyl-pyrimidine-5-carboxylic acid N-(3-methoxybenzyl)amide], for which the pEC50 was < 6.00 and the maximal effect (Emax) is < 50%.

For the compound `O=C(NCc1ccccc1Cl)c1cnc(Nc2cccc(Cl)c2)nc1C(F)(F)F` [Example 51, 2-(3-Chloro-phenylamino)-4-trifluoromethyl-pyrimidine-5-carboxylic acid N-(2-chlorobenzyl)amide], the pEC50 is < 6.00 and the maximal response (Emax) is < 50%.

For the compound `O=C(NCc1cccc(Cl)c1)c1cnc(Nc2cccc(Cl)c2)nc1C(F)(F)F` [Example 52, 2-(3-Chloro-phenylamino)-4-trifluoromethyl-pyrimidine-5-carboxylic acid N-(3-chlorobenzyl)amide], the negative-log EC50 (pEC50) is < 6.00 and the Emax is < 50%.

As for `CCN(Cc1ccccc1)C(=O)c1cnc(Nc2ccccc2Cl)nc1C(F)(F)F` [Example 53, 2-(2-Chloro-phenylamino)-4-trifluoromethyl-pyrimidine-5-carboxylic acid N-benzyl-N-ethyl-amide], the pEC50 is < 6.00 and the Emax was < 50%.

For the compound `CN(Cc1ccccc1)C(=O)c1cnc(Nc2ccc(Cl)cc2Cl)nc1C(F)(F)F` [Example 54, 2-(2,4-Dichloro-phenylamino)-4-trifluoroniethyl-pyrimidine-5-carboxylic acid N-benzyl-N methyl-amide], the pEC50 was < 6.00 and the maximal effect (Emax) is < 50%.

Consider `CN(Cc1ccccc1)C(=O)c1cnc(Nc2ccc(Cl)c(Cl)c2)nc1C(F)(F)F` [Example 55, 2-(3,4-Dichloro-phenylamino)-4-trifluoromethyl-pyrimidine-5-carboxylic acid N-benzyl-N-methyl-amide], for which the negative-log EC50 (pEC50) was < 6.00 and the maximum response (Emax) is < 50%.

Regarding `O=C(NCc1ccccc1)c1cnc(Nc2cc(Cl)ccc2Cl)nc1C(F)(F)F` [Example 56, 2-(2,5-Dichloro-phenylamino)-4-trifluoromethyl-pyrimidine-5-carboxylic acid N-benzylamide], the pEC50 was < 6.00 and the maximal response (Emax) was < 50%.

For the compound `CN(Cc1ccccc1)C(=O)c1cnc(Nc2cc(Cl)cc(Cl)c2)nc1C(F)(F)F` [Example 57, 2-(3,5-Dichloro-phenylamino)-4-trifluoromethyl-pyrimidine-5-carboxylic acid N-benzyl-N-methyl-amide], the pEC50 was < 6.00 and the Emax was < 50%.

In the case of `CN(Cc1ccccc1)C(=O)c1cnc(Nc2cc(Cl)ccc2Cl)nc1C(F)(F)F` [Example 58, 2-(2,5-Dichloro-phenylamino)-4-trifluoromethyl-pyrimidine-5-carboxylic acid N-benzyl-N-methyl-amide], the pEC50 was < 6.00 and the Emax was < 50%.

`O=C(NCc1ccccn1)c1cnc(Nc2cccc(Cl)c2)nc1C(F)(F)F` [Example 59, 2-(3-Chloro-phenylamino)-4-trifluoromethyl-pyrimidine-5-carboxylic acid N-(pyridin-2-ylmethyl)-amide]: the pEC50 is < 6.00 and the Emax is < 50%.

Consider `O=C(NCc1cccnc1)c1cnc(Nc2cccc(Cl)c2)nc1C(F)(F)F` [Example 60, 2-(3-Chloro-phenylamino)-4-trifluoromethyl-pyrimidine-5-carboxylic acid N-(pyridin-3-ylmetbyl)-amide], for which the negative logarithm of the EC50 (pEC50) was < 6.00 and the Emax was < 50%.

Regarding `O=C(NCc1cc(F)cc(F)c1)c1cnc(Nc2cccc(Cl)c2)nc1C(F)(F)F` [Example 61, 2-(3-Chloro-phenylamino)-4-trifluoromethyl-pyrimidine-5-carboxylic acid N-(3,5-difluoro-benzyl)amide], the negative-log EC50 (pEC50) is < 6.00 and the Emax is < 50%.

In the case of `O=C(NCc1ccc(OC(F)(F)F)cc1)c1cnc(Nc2cccc(Cl)c2)nc1C(F)(F)F` [Example 62, 2-(3-Chloro-phenylamino)-4-trifluoromethyl-pyrimidine-5-carboxylic acid N-(4-trifluoromethoxybenzyl)amide], the pEC50 is < 6.00 and the Emax was < 50%.

In the case of `O=C(NCc1ccc(Br)cc1)c1cnc(Nc2cccc(Cl)c2)nc1C(F)(F)F` [Example 63, 2-(3-Chloro-phenylamino)-4-trifluoromethyl-pyrimidine-5-carboxylic acid N-(4-bromo-benzyl)amide], the pEC50 is < 6.00 and the Emax is < 50%.

For `N#Cc1ccc(CNC(=O)c2cnc(Nc3cccc(Br)c3)nc2C(F)(F)F)cc1` [Example 64, 2-(3-Bromo-phenylamino)-4-trifluoromethyl-pyrimidine-5-carboxylic acid N-(4-cyano-benzyl)amide], the negative-log EC50 (pEC50) was < 6.00 and the Emax is < 50%.

Turning to `N#Cc1ccc(CNC(=O)c2cnc(Nc3cccc(Cl)c3Cl)nc2C(F)(F)F)cc1` [Example 65, 2-(2,3-Dichloro-phenylamino)-4-trifluoromethyl-pyrimidine-5-carboxylic acid N-(4-cyano-benzyl)amide], the negative-log EC50 (pEC50) is < 6.00 and the Emax was < 50%.

Regarding `N#Cc1ccc(CNC(=O)c2cnc(Nc3ccc(Cl)cc3Cl)nc2C(F)(F)F)cc1` [Example 66, 2-(2,4-Dichloro-phenylamino)-4-trifluoromethyl-pyrimidine-5-carboxylic acid N-(4-cyano-benzyl)amide], the pEC50 was < 6.00 and the Emax is < 50%.

For `N#Cc1ccc(CNC(=O)c2cnc(Nc3cc(Cl)ccc3Cl)nc2C(F)(F)F)cc1` [Example 67, 2-(2,5-Dichloro-phenylamino)-4-trifluoromethyl-pyrimidine-5-carboxylic acid N-(4-cyano-benzyl)amide], the negative-log EC50 (pEC50) was < 6.00 and the maximum response (Emax) was < 50%.

In the case of `N#Cc1ccc(CNC(=O)c2cnc(Nc3ccc(Cl)c(Cl)c3)nc2C(F)(F)F)cc1` [Example 68, 2-(3,4-Dichloro-phenylamino)-4-trifluoromethyl-pyrimidine-5-carboxylic acid N-(4-cyano-benzyl)amide], the pEC50 is < 6.00 and the maximum response (Emax) was < 50%.

With `O=C(NCc1ccncc1)c1cnc(Nc2c(Cl)cccc2Cl)nc1C(F)(F)F` [Example 69, 2-(2,6-Dichloro-phenylamino)-4-trifluorometbyl-pyrimidine-5-carboxylic acid N-(pyridin-4-ylmethyl)-amide], the negative logarithm of the EC50 (pEC50) is < 6.00 and the Emax was < 50%.

Regarding `O=C(NCc1ccc(F)cc1)c1cnc(Nc2c(Cl)cccc2Cl)nc1C(F)(F)F` [Example 70, 2-(2,6-Dichloro-phenylamino)-4-trifluoromethyl-pyrimidine-5-carboxylic acid N-(4-fluoro-benzyl)amide], the negative-log EC50 (pEC50) is < 6.00 and the Emax was < 50%.
